Consider 22 compounds from US20200109126A1 (priority 2017, published 2020).

For experiment [1], the target named is T1, hMOR (Homo sapiens, UniProt P35372). Kind of experiment: Receptor binding with [3H]diprenorphine at hMOR.
The target of experiment [2] is T2, hKOR (Homo sapiens, UniProt P41145). Kind of experiment: Receptor binding with [3H]diprenorphine at hKOR.
In the next experiment the target is humanDOR (Homo sapiens, UniProt P41143). Kind of experiment: Receptor binding with [3H]diprenorphine at human DOR.
For a further experiment, the target named is T3, MM1 (MOR N127C) (Homo sapiens, UniProt P35372, N129C).
T3 construct: expressed in transfected cells; host or cells: HEK 293
Kind of experiment: Receptor binding at MM1 (MOR N127C). To be noted: (n) = number of independent experiments; read-out: binding affinity Ki MM1 (MOR N127C).

A further experiment addresses T4, hMOR + Gqi5 (Homo sapiens, UniProt P35372).
T4 construct: expressed in transfected cells
Put plainly: IP accumulation assay, hMOR + Gqi5. The settings on record: % morphine. The experiment is classed as cell-based.

In experiment [3] the target is T1, hMOR. Put plainly: Radioligand binding studies (Example 6) at hMOR. The method, then:
(§1) For a primary screen of selected molecules, binding to μOR was assessed by measuring competition against the radioligand ^3H-diprenorphine (^3H-DPN). […] The reaction contained 40 fmol of μOR and was incubated in a buffer of 20 mM HEPES pH 7.5, 100 mM sodium chloride, and 0.1% bovine serum albumin for 1 hour at 25° C. To separate free from bound radioligand, reactions were rapidly filtered over Whatman GF/B filters with the aid of a Brandel harvester and ^3H-DPN counts were measured by liquid scintillation. […] Subsequently, the 8 compounds were tested in full dose-response for affinity at the μOR and the κOR by the National Institutes of Mental Health Psychoactive Drug Screen Program (PDSP), as were the affinities of the compounds at the μOR, δOR, κOR, and the nociception receptor.

For experiment [4], the target named is T2, hKOR. Put plainly: Radioligand binding studies (Example 6) at hKOR. The method, then:
as §1

Another experiment deals with hDOR (Homo sapiens, UniProt P41143). Put plainly: Radioligand binding studies (Example 6) at hDOR. The method, then: as §1
Experiment [5] concerns the target T5, μOR (Homo sapiens, UniProt P35372). Kind of experiment: BRET-based cAMP accumulation assay (SAR of PZM21-29). The settings on record: for loss of potency: compared to parent reference compound (PZM22). It is filed as cell-based. On the technique in general: In BRET a luciferase serves as donor, and the signal depends on an acceptor being close.
A further experiment deals with T6, μOR:N127C (Homo sapiens, UniProt P35372, N129C).
T6 construct: expressed in transfected cells; host or cells: HEK 293
Kind of experiment: Radioligand depletion assay, irreversible binding at μOR:N127C. To be noted: wash-resistant inhibition of radioligand binding.

A further experiment addresses T7, κOR (Homo sapiens, UniProt P41145).
T7 construct: NIMH Psychoactive Drug Screening Program (PDSP)
Put plainly: Radioligand binding at κOR (PDSP).

The target in experiment [6] is T5, μOR. Put plainly: cell-based. It is filed as cell-based.
The next experiment concerns the target T8, nociceptin receptor (Homo sapiens, UniProt P41146).
T8 construct: NIMH Psychoactive Drug Screening Program (PDSP)
Kind of experiment: Gi/o Glosensor assay at nociceptin receptor. The experiment is classed as cell-based. The settings on record: ND = not detectable.

For experiment [7], the target named is T5, μOR. Kind of experiment: β-arrestin2 recruitment, PathHunter assay. It is filed as cell-based. A general note: Activated receptors often draw arrestin, which recruitment assays turn into a signal.
[8] abbreviates: PZM analogs, (n) = number of independent experiments, read-out: binding affinity Ki hMOR.
[9] abbreviates: PZM analogs, (n) = number of independent experiments, read-out: binding affinity Ki hKOR.
The mark [10] stands for this setting: PZM analogs, (n) = number of independent experiments, read-out: binding affinity Ki hDOR.
Where [11] appears, read: ± SD (two experiments) or SEM, (n) experiments, read-out: hKOR [3H]dyprenorphine Ki.
[12] abbreviates: ± SD (two experiments) or SEM, (n) experiments, read-out: humanDOR [3H]dyprenorphine Ki.
The mark [13] stands for this setting: ± SD (two experiments) or SEM, (n) experiments, read-out: hMOR [3H]dyprenorphine Ki.

Entries after “also recorded” stand apart in the source; their conditions may differ. Where two headings read alike, the source gives them in different places.

T4 sequence (P35372 whole entry): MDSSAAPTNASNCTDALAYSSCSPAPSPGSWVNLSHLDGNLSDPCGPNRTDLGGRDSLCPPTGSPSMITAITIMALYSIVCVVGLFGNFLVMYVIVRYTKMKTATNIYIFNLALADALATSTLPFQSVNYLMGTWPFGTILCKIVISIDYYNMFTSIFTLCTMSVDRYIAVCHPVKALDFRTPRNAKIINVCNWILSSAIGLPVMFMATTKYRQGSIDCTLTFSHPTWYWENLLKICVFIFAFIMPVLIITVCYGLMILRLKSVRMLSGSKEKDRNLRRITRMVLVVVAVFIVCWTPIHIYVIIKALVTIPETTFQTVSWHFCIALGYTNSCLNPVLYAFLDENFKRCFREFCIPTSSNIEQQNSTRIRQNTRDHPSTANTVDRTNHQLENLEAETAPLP
T1 sequence (P35372 whole entry): as above
T5 sequence (P35372 whole entry): as above
T3 sequence (P35372 whole entry N129C): as the sequence (P35372 whole entry) above, with N129C counted along it
T2 sequence (P41145 whole entry): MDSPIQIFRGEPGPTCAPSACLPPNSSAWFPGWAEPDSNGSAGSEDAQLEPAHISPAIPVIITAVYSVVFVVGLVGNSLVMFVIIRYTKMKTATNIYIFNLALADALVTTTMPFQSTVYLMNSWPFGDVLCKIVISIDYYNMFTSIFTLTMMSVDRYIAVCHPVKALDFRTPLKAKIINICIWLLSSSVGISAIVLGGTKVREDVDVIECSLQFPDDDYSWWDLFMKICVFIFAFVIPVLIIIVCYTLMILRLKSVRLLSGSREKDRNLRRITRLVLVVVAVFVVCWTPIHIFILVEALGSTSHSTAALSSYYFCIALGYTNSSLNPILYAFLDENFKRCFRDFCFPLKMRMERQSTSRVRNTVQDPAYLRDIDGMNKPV
hDOR, sequence (P41143 whole entry): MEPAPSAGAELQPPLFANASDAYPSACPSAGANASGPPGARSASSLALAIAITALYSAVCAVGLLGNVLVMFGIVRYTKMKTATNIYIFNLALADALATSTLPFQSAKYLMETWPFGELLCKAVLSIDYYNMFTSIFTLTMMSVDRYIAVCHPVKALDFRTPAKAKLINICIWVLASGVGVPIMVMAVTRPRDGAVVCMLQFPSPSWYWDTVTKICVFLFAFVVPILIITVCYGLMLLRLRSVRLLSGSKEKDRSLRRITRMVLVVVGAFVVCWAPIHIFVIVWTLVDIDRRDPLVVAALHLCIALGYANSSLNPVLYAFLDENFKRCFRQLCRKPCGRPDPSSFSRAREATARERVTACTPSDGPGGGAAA
humanDOR, sequence (P41143 whole entry): as above
T6 sequence (P35372 whole entry N129C): as the sequence (P35372 whole entry) above, with N129C counted along it
T7 sequence (P41145 whole entry): as the sequence (P41145 whole entry) above
T8 sequence (P41146 whole entry): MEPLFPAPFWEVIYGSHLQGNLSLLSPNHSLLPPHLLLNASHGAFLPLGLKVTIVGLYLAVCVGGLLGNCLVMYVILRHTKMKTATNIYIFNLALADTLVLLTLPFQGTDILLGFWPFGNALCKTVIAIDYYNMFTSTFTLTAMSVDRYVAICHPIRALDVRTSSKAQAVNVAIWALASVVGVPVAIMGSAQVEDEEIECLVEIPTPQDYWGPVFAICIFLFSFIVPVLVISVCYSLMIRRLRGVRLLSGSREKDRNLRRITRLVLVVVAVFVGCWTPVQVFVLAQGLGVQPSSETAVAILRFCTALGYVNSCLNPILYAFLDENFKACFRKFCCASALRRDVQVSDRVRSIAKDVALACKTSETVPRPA

In the case of `CN(C)[C@H](CNC(=O)NCCCCN1C(=O)C=CC1=O)Cc1ccc(O)cc1`, the Ki came to 1000 nM on hMOR [1] (setting [8]), 760 nM at hKOR [2] (setting [9]), 4900 nM at humanDOR (setting [10]) and 5.9 nM at MM1 (MOR N127C).

With `Cc1cc(O)cc(C)c1C[C@@H](CNC(=O)NCCN1C(=O)C=CC1=O)N(C)C`, the Ki is 18 nM on hMOR [1] (setting [8]), 200 nM on hKOR [2] (setting [9]), 150 nM at humanDOR (setting [10]) and 0.93 nM at MM1 (MOR N127C).

With `C[C@@H](CN1C(=O)C=CC1=O)NC(=O)NC[C@H](Cc1ccc(O)cc1)N(C)C`, the Ki on hMOR [1] (setting [8]) was determined as 410 nM; on hKOR [2] (setting [9]), 1200 nM; on humanDOR (setting [10]), 860 nM; at MM1 (MOR N127C) it was 5.6 nM.

Take `C[C@H](CN1C(=O)C=CC1=O)NC(=O)NC[C@H](Cc1ccc(O)cc1)N(C)C`: the Ki was found to be 90 nM at hMOR [1] (setting [8]), 690 nM on hKOR [2] (setting [9]), 210 nM at humanDOR (setting [10]) and 0.13 nM at MM1 (MOR N127C).

Turning to `CC(Cc1ccsc1)NC(=O)NCC(Cc1ccc(O)cc1)N(C)C` (single isomer, unassigned) [BD 122LR], the Ki at hKOR [2] (setting [11]) was 190 nM; on humanDOR (setting [12]), 88 nM. The “hMOR + Gqi5 IP accumulation assay efficacy a” value on hMOR + Gqi5 is “a: 17%”.

Regarding `CC(Cc1ccsc1)NC(=O)NCC(Cc1ccc(O)cc1)N(C)C` (single isomer, unassigned) [BD 122LS], the “hMOR + Gqi5 IP accumulation assay efficacy a” value at hMOR + Gqi5 is “a: 73%”.

On to `Cc1cc(O)cc(C)c1C[C@@H](CNC(=O)N[C@H](C)Cc1ccsc1)N(C)C` [BD 131LR, 1-((S)-2-(dimethylamino)-3-(4-hydroxy-2,6-dimethylphenyl)propyl)-3-((R)-1-(thiophen-3-yl)propan-2-yl)urea], for which the Ki on hMOR [1] (setting [13]) turned out to be 4.1 nM; on hKOR [2] (setting [11]), 12 nM; on humanDOR (setting [12]), 17 nM. On hMOR + Gqi5 (@10 μM), the “hMOR + Gqi5 IP accumulation assay efficacy a @10 μM” value is reported as “@10 μM a: 10%”.

As for `Cc1cc(O)cc(C)c1C[C@@H](CNC(=O)N[C@@H](C)Cc1ccsc1)N(C)C` [BD 131LS, 1-((S)-2-(dimethylamino)-3-(4-hydroxy-2,6-dimethylphenyl)propyl)-3-((S)-1-(thiophen-3-yl)propan-2-yl)urea], the Ki came out at 12 nM at hMOR [1] (setting [13]), 6.5 nM on hKOR [2] (setting [11]) and 85 nM on humanDOR (setting [12]). For the same compound, the “hMOR + Gqi5 IP accumulation assay efficacy a” value on hMOR + Gqi5 is “a: <5%”.

In the case of `C[C@@H](Cc1ccsc1)NC(=O)NC[C@@H]1Cc2ccc(O)cc2CN1C` [DD118, 1-(((S)-7-hydroxy-2-methyl-1,2,3,4-tetrahydroisoquinolin-3-yl)methyl)-3-((S)-1-(thiophen-3-yl)propan-2-yl)urea], the results for the Ki on hMOR [3], at hKOR [4] and on hDOR were 150 nM, 110 nM and 150 nM, respectively.

`COc1cc(F)ccc1CCNC(=O)NC[C@H](Cc1ccc(O)cc1)N(C)C` [DD214, (S)-1-(2-(dimethylamino)-3-(4-hydroxyphenyl)propyl)-3-(4-fluoro-2-methoxyphenethyl)urea]: the Ki on hMOR [3] turned out to be 42 nM; at hKOR [4], 170 nM; on hDOR it was 390 nM.

For `COc1ccc(C[C@@H](CNC(=O)N[C@@H](C)Cc2ccsc2)N(C)C)cc1` [DD222, 1-((S)-2-(dimethylamino)-3-(4-methoxyphenyl)propyl)-3-((S)-1-(thiophen-3-yl)propan-2-yl)urea], the Ki on hMOR [3] worked out at 390 nM; on hKOR [4] it was 460 nM; on hDOR it was 5900 nM.

As to `CN[C@H](CNC(=O)NCCc1ccc(F)cc1OC)Cc1ccc(O)cc1` [DD229, (5)-1-(4-fluoro-2-methoxyphenethyl)-3-(3-(4-hydroxyphenyl)-2-(methylamino)propyl)urea], the Ki at hMOR [3] (read-out: Binding affinities hMOR [3H]dyprenorph) was found to be 130 nM; at hKOR [4] (read-out: Binding affinities hKOR [3H]dyprenorph), 320 nM; at hDOR (read-out: Binding affinities hDOR [3H]dyprenorph), 480 nM.

As for `CC(=O)Oc1ccc(C[C@@H](CNC(=O)N[C@@H](C)Cc2ccsc2)N(C)C)cc1` [DD230, 4-((S)-2-(dimethylamino)-3-(3-((S)-1-(thiophen-3-yl)propan-2-yl)ureido)propyl)phenyl acetate], the Ki was determined as 240 nM at hMOR [3], 250 nM at hKOR [4] and 920 nM on hDOR.

Take `CN(C)[C@H](CNc1c(NCCc2ccccc2)c(=O)c1=O)Cc1ccc(O)cc1` [DD247, (S)-3-((2-(dimethylamino)-3-(4-hydroxyphenyl)propyl)amino)-4-(phenethylamino)cyclobut-3-ene-1,2-dione]: the Ki on hMOR [3] turned out to be 320 nM; at hKOR [4], 310 nM; on hDOR, 2900 nM.

Take `C[C@@H](Cc1ccsc1)Nc1c(NC[C@H](Cc2ccc(O)cc2)N(C)C)c(=O)c1=O` [DD251, 3-(((S)-2-(dimethylamino)-3-(4-hydroxyphenyl)propyl)amino)-4-(((S)-1-(thiophen-3-yl)propan-2-yl)amino)cyclobut-3-ene-1,2-dione]: the Ki was 33 nM at hMOR [3], 16 nM on hKOR [4] and 650 nM on hDOR.

As for `CN(C)[C@H](CNc1nc(=O)cc(Cc2ccccc2)[nH]1)Cc1ccc(O)cc1` [DD258, (S)-6-benzyl-2-((2-(dimethylamino)-3-(4-hydroxyphenyl)propyl)amino)pyrimidin-4(1H)-one], the figures for the Ki on hMOR [3], on hKOR [4] and at hDOR were 290 nM, 350 nM and 390 nM, respectively.

Take `CN(CC1CC1)[C@H](CNC(=O)NCCc1ccccc1)Cc1ccc(O)cc1` [PZM27, (S)-1-(2-((Cyclopropylmethyl)(methyl)amino)-3-(4-hydroxyphenyl)propyl)-3-phenethylurea x CF3COOH]: at μOR [5], the “efficacy and potency as agonist (in words)” value was “decreased efficacy”; the loss of potency was 30 fold.

On to `CN(C=O)[C@H](CNC(=O)NCCc1ccccc1)Cc1ccc(O)cc1` [PZM28, (S)—N-(1-(4-Hydroxyphenyl)-3-(3-phenethylureido)propan-2-yl)-N-methylformamide], for which the loss of potency on μOR [5] is 1000 fold.

Take `CN(C)[C@H](CNC(=O)NCCc1cn(CCSSCCN=[N+]=[N-])nn1)Cc1ccc(O)cc1` [PZM29, (S)-1-(2-(1-(2-((2-Azidoethyl)disulfanyl)ethyl)-1H-1,2,3-triazol-4-yl)ethyl)-3-(2-(dimethylamino)-3-(4-hydroxyphenyl)propyl)urea x CF3COOH]: the “efficacy and potency as agonist (in words)” value on μOR [5] was “retains its efficacy as an agonist”. For the same compound, the “irreversible binding to μOR:N127C” value on μOR:N127C was “binds to the μOR:N127C variant irreversibly; also recorded: binds irreversibly to this mutant”.

In general, EC50 refers to the concentration that produces a half-maximal response. High values mean weaker potency, low ones greater potency. Consider `C[C@H](Cc1ccsc1)NC(=O)NC[C@@H](Cc1ccccc1)N(C)C` [compound 12], for which the Ki at κOR (Ki (nM) κOR) turned out to be 464 nM; on κOR (κOR Ki (μM), analogs, full dose-response), 460 nM. In addition, the “Gi/o activation, μOR agonist activity (in words)” value on μOR [6] is on record as “robust μOR agonist activity; also recorded: strongly activated Gi/o”. The EC50 at nociceptin receptor was 1400 nM. The “β-arrestin2 recruitment (in words)” value on μOR [7] is “undetectable; also recorded: low levels”.

On to `CN(C)[C@H](CNC(=O)NCCc1cn(CCSSCCN=[N+]=[N-])nn1)Cc1ccc(O)cc1` [drawing 545], for which the Ki on hMOR [1] (setting [8]) stood at 420 nM; on hKOR [2] (setting [9]), 1500 nM; on humanDOR (setting [10]), 3900 nM; on MM1 (MOR N127C), 34 nM.

In the case of “(S)-1-(2-(dimethylamino)-3-(4-hydroxy-2,6-dimethylphenyl)propyl)-3-(2-(thiophen-3-yl)ethyl)urea [DD 34L]”, the figures for the Ki on hMOR [1] (setting [13]), at hKOR [2] (setting [11]) and on humanDOR (setting [12]) were 6.2 nM, 27 nM and 51 nM, respectively. Besides, the “hMOR + Gqi5 IP accumulation assay efficacy a” value at hMOR + Gqi5 is “a: <5%”.
